Test results reported in article PMC4767141, “Discovery of Potent, Orally Bioavailable, Small-Molecule Inhibitors of WNT Signaling from a Cell-Based Pathway Screen” (Journal of Medicinal Chemistry, 2015).

Experiments:
CCR1 (h) = target: T1, CCR1 (h) (Homo sapiens, UniProt P32246); assay: CEREP binding panel; settings: agonist radioligand, read-out: % Inhibition of Control Specific Binding
T1 construct: purchased Millipore KinaseProfiler (kinases); Cerep (receptors and ion channels)

CCK1 (CCKA) (h) = target: T2, CCK1 (CCKA) (h) (Homo sapiens, UniProt P32238); assay: CEREP binding panel; settings: agonist radioligand, read-out: % Inhibition of Control Specific Binding
T2 construct: purchased Millipore KinaseProfiler (kinases); Cerep (receptors and ion channels)
T2 sequence (P32238 whole entry): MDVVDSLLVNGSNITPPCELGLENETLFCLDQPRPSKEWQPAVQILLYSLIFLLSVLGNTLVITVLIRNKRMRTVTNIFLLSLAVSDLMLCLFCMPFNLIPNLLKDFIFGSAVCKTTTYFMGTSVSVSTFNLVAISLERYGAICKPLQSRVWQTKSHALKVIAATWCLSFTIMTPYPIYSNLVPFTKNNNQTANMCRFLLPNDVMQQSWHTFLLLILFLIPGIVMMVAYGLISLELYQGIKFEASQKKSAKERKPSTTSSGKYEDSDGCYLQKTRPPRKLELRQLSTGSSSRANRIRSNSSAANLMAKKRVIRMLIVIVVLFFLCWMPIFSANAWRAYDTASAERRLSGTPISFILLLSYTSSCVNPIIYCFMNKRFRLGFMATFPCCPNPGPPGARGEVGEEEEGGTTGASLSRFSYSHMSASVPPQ

PKCMU = target: T3, PKCMU (Homo sapiens, UniProt Q15139); assay: Millipore kinase panel; format: biochemical; settings: read-out: % Control
T3 construct: purchased Millipore KinaseProfiler (kinases); Cerep (receptors and ion channels)

CXCR2 (IL-8B) (h) = target: T4, CXCR2 (IL-8B) (h) (Homo sapiens, UniProt P25025); assay: CEREP binding panel; settings: agonist radioligand, read-out: % Inhibition of Control Specific Binding
T4 construct: purchased Millipore KinaseProfiler (kinases); Cerep (receptors and ion channels)

5-HT1A (h) = target: T5, 5-HT1A (h) (Homo sapiens, UniProt P08908); assay: CEREP binding panel; settings: agonist radioligand, read-out: % Inhibition of Control Specific Binding
T5 construct: purchased Millipore KinaseProfiler (kinases); Cerep (receptors and ion channels)

PAK5 = target: T6, PAK5 (Homo sapiens, UniProt Q9P286); assay: Millipore kinase panel; format: biochemical; settings: read-out: % Control
T6 construct: purchased Millipore KinaseProfiler (kinases); Cerep (receptors and ion channels)

STK33 = target: T7, STK33 (Homo sapiens, UniProt Q9BYT3); assay: Millipore kinase panel; format: biochemical; settings: read-out: % Control
T7 construct: purchased Millipore KinaseProfiler (kinases); Cerep (receptors and ion channels)
T7 sequence (Q9BYT3 whole entry): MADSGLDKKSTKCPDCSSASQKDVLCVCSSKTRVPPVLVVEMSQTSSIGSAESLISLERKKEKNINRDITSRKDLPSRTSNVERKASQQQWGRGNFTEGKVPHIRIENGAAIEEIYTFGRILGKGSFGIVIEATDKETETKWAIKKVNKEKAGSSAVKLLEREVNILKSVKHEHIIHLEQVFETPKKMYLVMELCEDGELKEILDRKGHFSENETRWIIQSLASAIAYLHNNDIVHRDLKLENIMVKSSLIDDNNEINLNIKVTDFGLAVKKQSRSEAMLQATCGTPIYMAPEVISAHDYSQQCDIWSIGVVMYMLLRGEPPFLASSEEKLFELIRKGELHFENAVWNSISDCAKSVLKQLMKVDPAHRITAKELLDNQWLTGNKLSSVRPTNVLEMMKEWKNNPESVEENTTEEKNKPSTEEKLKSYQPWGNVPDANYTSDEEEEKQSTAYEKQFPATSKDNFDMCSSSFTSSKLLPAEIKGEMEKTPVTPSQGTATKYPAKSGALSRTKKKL

CLK3 = target: T8, CLK3 (Homo sapiens, UniProt P49761); assay: Millipore kinase panel; format: biochemical; settings: read-out: % Control
T8 construct: purchased Millipore KinaseProfiler (kinases); Cerep (receptors and ion channels)

5-HT transporter (h) = target: T9, 5-HT transporter (h) (Homo sapiens, UniProt P31645); assay: CEREP binding panel; settings: antagonist radioligand, read-out: % Inhibition of Control Specific Binding
T9 construct: purchased Millipore KinaseProfiler (kinases); Cerep (receptors and ion channels)

NLK = target: T10, NLK (Homo sapiens, UniProt Q9UBE8); assay: Millipore kinase panel; format: biochemical; settings: read-out: % Control
T10 construct: purchased Millipore KinaseProfiler (kinases); Cerep (receptors and ion channels)

FGFR4 = target: T11, FGFR4 (Homo sapiens, UniProt P22455); assay: Millipore kinase panel; format: biochemical; settings: read-out: % Control
T11 construct: purchased Millipore KinaseProfiler (kinases); Cerep (receptors and ion channels)

MSK1 = target: T12, MSK1 (Homo sapiens, UniProt O75582); assay: Millipore kinase panel; format: biochemical; settings: read-out: % Control
T12 construct: purchased Millipore KinaseProfiler (kinases); Cerep (receptors and ion channels)

SKCa channel = assay: CEREP binding panel; settings: 10 μM, antagonist radioligand
TSSK1 = target: T13, TSSK1 (Homo sapiens, UniProt Q9BXA7); assay: Millipore kinase panel; format: biochemical; settings: read-out: % Control
T13 construct: purchased Millipore KinaseProfiler (kinases); Cerep (receptors and ion channels)

JNK2ALPHA2 = target: T14, JNK2ALPHA2 (Homo sapiens, UniProt P45984); assay: Millipore kinase panel; format: biochemical; settings: read-out: % Control
T14 construct: purchased Millipore KinaseProfiler (kinases); Cerep (receptors and ion channels)

PRKX = target: T15, PRKX (Homo sapiens, UniProt P51817); assay: Millipore kinase panel; format: biochemical; settings: read-out: % Control
T15 construct: purchased Millipore KinaseProfiler (kinases); Cerep (receptors and ion channels)

[1] = Caco-2 Papp determination; format: in vitro ADME, human
FGR = target: T16, FGR (Homo sapiens, UniProt P09769); assay: Millipore kinase panel; format: biochemical; settings: read-out: % Control
T16 construct: purchased Millipore KinaseProfiler (kinases); Cerep (receptors and ion channels)

RSK1 = target: T17, RSK1 (Homo sapiens, UniProt Q15418); assay: Millipore kinase panel; format: biochemical; settings: read-out: % Control
T17 construct: purchased Millipore KinaseProfiler (kinases); Cerep (receptors and ion channels)
T17 sequence (Q15418 whole entry): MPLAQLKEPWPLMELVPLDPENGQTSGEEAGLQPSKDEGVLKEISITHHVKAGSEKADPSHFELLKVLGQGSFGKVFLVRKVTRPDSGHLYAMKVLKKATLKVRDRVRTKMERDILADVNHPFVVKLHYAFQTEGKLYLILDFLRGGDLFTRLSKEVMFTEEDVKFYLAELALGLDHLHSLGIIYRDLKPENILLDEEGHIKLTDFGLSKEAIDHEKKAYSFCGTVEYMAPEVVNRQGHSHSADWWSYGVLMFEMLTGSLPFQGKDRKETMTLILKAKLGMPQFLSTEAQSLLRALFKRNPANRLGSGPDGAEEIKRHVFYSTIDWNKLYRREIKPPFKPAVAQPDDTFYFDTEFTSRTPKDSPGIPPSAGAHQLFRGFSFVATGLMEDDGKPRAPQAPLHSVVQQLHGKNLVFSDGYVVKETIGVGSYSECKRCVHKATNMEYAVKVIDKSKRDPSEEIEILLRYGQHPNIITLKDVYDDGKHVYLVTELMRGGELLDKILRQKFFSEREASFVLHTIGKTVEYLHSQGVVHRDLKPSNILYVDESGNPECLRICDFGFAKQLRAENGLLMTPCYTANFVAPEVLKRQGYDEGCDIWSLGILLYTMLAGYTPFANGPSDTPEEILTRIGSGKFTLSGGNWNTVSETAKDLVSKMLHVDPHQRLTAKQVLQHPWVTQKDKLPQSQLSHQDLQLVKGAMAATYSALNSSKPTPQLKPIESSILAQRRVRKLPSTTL

ULK3 = target: T18, ULK3 (Homo sapiens, UniProt Q6PHR2); assay: Millipore kinase panel; format: biochemical; settings: read-out: % Control
T18 construct: purchased Millipore KinaseProfiler (kinases); Cerep (receptors and ion channels)

[2] = test system: Ca2+ channel (L, verapamil site) (phenylalkylamine); assay: CEREP binding panel; settings: 10 μM, antagonist radioligand
BRSK1 = target: T19, BRSK1 (Homo sapiens, UniProt Q8TDC3); assay: Millipore kinase panel; format: biochemical; settings: read-out: % Control
T19 construct: purchased Millipore KinaseProfiler (kinases); Cerep (receptors and ion channels)
T19 sequence (Q8TDC3 whole entry): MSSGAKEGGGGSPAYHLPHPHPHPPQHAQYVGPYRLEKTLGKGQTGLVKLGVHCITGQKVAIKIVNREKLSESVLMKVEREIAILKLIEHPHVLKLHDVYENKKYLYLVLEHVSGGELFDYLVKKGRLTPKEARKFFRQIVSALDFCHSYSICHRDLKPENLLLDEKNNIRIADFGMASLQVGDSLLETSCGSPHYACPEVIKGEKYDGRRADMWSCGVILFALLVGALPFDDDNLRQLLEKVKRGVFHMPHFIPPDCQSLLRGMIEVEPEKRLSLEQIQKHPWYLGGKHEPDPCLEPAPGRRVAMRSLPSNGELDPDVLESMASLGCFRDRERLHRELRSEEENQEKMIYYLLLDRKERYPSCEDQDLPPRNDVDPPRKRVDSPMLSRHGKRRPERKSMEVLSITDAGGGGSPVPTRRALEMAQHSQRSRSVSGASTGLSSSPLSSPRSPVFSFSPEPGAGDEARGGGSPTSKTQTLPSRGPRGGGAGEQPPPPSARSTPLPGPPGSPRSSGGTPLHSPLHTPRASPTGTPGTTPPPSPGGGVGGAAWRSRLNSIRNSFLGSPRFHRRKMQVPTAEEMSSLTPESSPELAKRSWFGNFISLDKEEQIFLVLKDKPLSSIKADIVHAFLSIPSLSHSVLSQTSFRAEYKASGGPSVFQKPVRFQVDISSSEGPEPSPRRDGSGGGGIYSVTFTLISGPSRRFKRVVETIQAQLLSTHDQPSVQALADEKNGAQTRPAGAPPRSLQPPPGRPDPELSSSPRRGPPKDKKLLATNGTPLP

FGFR3 = target: T20, FGFR3 (Homo sapiens, UniProt P22607); assay: Millipore kinase panel; format: biochemical; settings: read-out: % Control
T20 construct: purchased Millipore KinaseProfiler (kinases); Cerep (receptors and ion channels)

DYRK2 = target: T21, DYRK2 (Homo sapiens, UniProt Q92630); assay: Millipore kinase panel; format: biochemical; settings: read-out: % Control
T21 construct: purchased Millipore KinaseProfiler (kinases); Cerep (receptors and ion channels)
T21 sequence (Q92630 whole entry): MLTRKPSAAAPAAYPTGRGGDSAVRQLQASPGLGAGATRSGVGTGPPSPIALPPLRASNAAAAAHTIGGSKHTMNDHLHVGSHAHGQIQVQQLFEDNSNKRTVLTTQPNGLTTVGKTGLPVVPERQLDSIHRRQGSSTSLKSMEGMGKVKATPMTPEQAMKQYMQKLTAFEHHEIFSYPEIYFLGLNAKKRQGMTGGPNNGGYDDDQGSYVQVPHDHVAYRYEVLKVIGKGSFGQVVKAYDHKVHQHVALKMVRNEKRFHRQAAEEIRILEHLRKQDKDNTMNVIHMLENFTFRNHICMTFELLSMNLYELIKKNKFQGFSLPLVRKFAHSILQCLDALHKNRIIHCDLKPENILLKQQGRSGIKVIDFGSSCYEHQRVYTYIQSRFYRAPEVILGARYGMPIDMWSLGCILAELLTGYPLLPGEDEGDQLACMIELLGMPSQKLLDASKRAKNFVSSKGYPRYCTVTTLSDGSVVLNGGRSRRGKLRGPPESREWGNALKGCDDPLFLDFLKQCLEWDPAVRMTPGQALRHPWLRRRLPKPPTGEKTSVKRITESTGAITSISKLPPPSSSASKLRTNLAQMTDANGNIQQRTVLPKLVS

ERBB4 = target: T22, ERBB4 (Homo sapiens, UniProt Q15303); assay: Millipore kinase panel; format: biochemical; settings: read-out: % Control
T22 construct: purchased Millipore KinaseProfiler (kinases); Cerep (receptors and ion channels)

GABA (non-selective) = assay: CEREP binding panel; settings: 10 μM, agonist radioligand
FER = target: T23, FER (Homo sapiens, UniProt P16591); assay: Millipore kinase panel; format: biochemical; settings: read-out: % Control
T23 construct: purchased Millipore KinaseProfiler (kinases); Cerep (receptors and ion channels)

PKD2 = target: T24, PKD2 (Homo sapiens, UniProt Q9BZL6); assay: Millipore kinase panel; format: biochemical; settings: read-out: % Control
T24 construct: purchased Millipore KinaseProfiler (kinases); Cerep (receptors and ion channels)

DAPK1 = target: T25, DAPK1 (Homo sapiens, UniProt P53355); assay: Millipore kinase panel; format: biochemical; settings: read-out: % Control
T25 construct: purchased Millipore KinaseProfiler (kinases); Cerep (receptors and ion channels)

PIM-2 = target: T26, PIM-2 (Homo sapiens, UniProt Q9P1W9); assay: Millipore kinase panel; format: biochemical; settings: read-out: % Control
T26 construct: purchased Millipore KinaseProfiler (kinases); Cerep (receptors and ion channels)

MET = target: T27, MET (Homo sapiens, UniProt P08581); assay: Millipore kinase panel; format: biochemical; settings: read-out: % Control
T27 construct: purchased Millipore KinaseProfiler (kinases); Cerep (receptors and ion channels)

EPHB4 = target: T28, EPHB4 (Homo sapiens, UniProt P54760); assay: Millipore kinase panel; format: biochemical; settings: read-out: % Control
T28 construct: purchased Millipore KinaseProfiler (kinases); Cerep (receptors and ion channels)

α2 (non-selective) = assay: CEREP binding panel; settings: 10 μM, antagonist radioligand
FGFR2 = target: T29, FGFR2 (Homo sapiens, UniProt P21802); assay: Millipore kinase panel; format: biochemical; settings: read-out: % Control
T29 construct: purchased Millipore KinaseProfiler (kinases); Cerep (receptors and ion channels)
T29 sequence (P21802 22-821): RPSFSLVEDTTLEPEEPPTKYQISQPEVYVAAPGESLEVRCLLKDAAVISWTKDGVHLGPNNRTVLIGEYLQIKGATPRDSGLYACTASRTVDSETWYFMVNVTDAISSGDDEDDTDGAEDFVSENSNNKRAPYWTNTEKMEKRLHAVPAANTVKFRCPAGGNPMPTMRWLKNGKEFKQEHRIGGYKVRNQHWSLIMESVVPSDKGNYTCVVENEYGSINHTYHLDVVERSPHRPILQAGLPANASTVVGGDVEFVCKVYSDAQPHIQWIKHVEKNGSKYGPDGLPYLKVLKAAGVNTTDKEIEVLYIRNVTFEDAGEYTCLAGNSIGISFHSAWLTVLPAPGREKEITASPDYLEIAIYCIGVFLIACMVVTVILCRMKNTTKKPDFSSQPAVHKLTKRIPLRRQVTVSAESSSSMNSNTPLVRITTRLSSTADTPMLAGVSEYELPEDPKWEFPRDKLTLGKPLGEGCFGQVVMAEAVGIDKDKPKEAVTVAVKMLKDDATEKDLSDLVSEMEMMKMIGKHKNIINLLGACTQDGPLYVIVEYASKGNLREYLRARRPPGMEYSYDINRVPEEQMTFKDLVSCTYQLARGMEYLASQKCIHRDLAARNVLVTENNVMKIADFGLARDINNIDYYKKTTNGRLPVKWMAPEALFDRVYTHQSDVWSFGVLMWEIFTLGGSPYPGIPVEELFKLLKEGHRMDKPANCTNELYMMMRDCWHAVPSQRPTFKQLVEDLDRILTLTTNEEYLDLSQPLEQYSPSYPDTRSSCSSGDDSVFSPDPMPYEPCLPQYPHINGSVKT

NK3 (h) = target: T30, NK3 (h) (Homo sapiens, UniProt P29371); assay: CEREP binding panel; settings: antagonist radioligand, read-out: % Inhibition of Control Specific Binding
T30 construct: purchased Millipore KinaseProfiler (kinases); Cerep (receptors and ion channels)

TLK2 = target: T31, TLK2 (Homo sapiens, UniProt Q86UE8); assay: Millipore kinase panel; format: biochemical; settings: read-out: % Control
T31 construct: purchased Millipore KinaseProfiler (kinases); Cerep (receptors and ion channels)
T31 sequence (Q86UE8 whole entry): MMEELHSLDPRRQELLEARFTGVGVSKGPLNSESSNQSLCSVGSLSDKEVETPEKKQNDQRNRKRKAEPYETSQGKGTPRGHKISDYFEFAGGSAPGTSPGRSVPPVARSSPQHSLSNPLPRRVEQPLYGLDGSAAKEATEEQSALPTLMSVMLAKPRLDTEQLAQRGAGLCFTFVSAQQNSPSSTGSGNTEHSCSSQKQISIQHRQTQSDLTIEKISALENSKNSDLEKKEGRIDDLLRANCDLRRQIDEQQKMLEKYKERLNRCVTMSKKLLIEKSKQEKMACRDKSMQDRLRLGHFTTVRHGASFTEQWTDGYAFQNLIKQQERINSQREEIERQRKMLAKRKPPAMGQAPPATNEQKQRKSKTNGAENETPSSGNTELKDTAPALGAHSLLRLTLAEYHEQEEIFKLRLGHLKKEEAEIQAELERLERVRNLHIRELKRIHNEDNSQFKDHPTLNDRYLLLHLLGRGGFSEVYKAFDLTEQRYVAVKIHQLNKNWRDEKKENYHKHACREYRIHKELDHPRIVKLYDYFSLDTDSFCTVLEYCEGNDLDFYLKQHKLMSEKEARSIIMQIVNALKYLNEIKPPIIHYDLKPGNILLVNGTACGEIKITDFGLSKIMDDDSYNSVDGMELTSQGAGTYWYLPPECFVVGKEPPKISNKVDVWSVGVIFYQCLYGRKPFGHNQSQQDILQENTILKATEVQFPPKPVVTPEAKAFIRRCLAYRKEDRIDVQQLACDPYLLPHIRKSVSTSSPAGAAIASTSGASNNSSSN

A1 (h) = target: T32, A1 (h) (Homo sapiens, UniProt P30542); assay: CEREP binding panel; settings: antagonist radioligand, read-out: % Inhibition of Control Specific Binding
T32 construct: purchased Millipore KinaseProfiler (kinases); Cerep (receptors and ion channels)
T32 sequence (P30542 whole entry): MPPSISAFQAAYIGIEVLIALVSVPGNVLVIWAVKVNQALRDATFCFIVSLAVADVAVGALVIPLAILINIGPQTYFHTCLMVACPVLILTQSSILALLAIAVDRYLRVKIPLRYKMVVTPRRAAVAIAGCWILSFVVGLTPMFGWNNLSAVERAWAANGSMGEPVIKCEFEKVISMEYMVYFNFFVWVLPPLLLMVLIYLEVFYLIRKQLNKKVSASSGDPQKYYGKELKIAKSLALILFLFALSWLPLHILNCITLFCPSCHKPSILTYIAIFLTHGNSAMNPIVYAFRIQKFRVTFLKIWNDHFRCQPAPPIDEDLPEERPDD

PIM-1 = target: T33, PIM-1 (Homo sapiens, UniProt P11309); assay: Millipore kinase panel; format: biochemical; settings: read-out: % Control
T33 construct: purchased Millipore KinaseProfiler (kinases); Cerep (receptors and ion channels)

SIK = target: T34, SIK (Homo sapiens, UniProt P57059); assay: Millipore kinase panel; format: biochemical; settings: read-out: % Control
T34 construct: purchased Millipore KinaseProfiler (kinases); Cerep (receptors and ion channels)

ZAP-70 = target: T35, ZAP-70 (Homo sapiens, UniProt P43403); assay: Millipore kinase panel; format: biochemical; settings: read-out: % Control
T35 construct: purchased Millipore KinaseProfiler (kinases); Cerep (receptors and ion channels)

GRK6 = target: T36, GRK6 (Homo sapiens, UniProt P43250); assay: Millipore kinase panel; format: biochemical; settings: read-out: % Control
T36 construct: purchased Millipore KinaseProfiler (kinases); Cerep (receptors and ion channels)

MLK1 = target: T37, MLK1 (Homo sapiens, UniProt P80192); assay: Millipore kinase panel; format: biochemical; settings: read-out: % Control
T37 construct: purchased Millipore KinaseProfiler (kinases); Cerep (receptors and ion channels)

SAPK3 = target: T38, SAPK3 (Homo sapiens, UniProt P53778); assay: Millipore kinase panel; format: biochemical; settings: read-out: % Control
T38 construct: purchased Millipore KinaseProfiler (kinases); Cerep (receptors and ion channels)

ULK2 = target: T39, ULK2 (Homo sapiens, UniProt Q8IYT8); assay: Millipore kinase panel; format: biochemical; settings: read-out: % Control
T39 construct: purchased Millipore KinaseProfiler (kinases); Cerep (receptors and ion channels)

## O=C1NCCC12CCN(c1c(Cl)cncc1-c1ccc(N3CCOCC3)cc1)CC2 [Compound 44, 8-(3-Chloro-5-(4-morpholin-4-ylphenyl)pyridin-4-yl)-2,8-diazaspiro[4.5]decan-1-one]
CCR1 (h)
  inhibition at 10 µM: 0%
CCK1 (CCKA) (h)
  inhibition at 10 µM: -16%
PKCMU
  remaining activity at 1 µM: -22%
CXCR2 (IL-8B) (h)
  inhibition at 10 µM: -2%
5-HT1A (h)
  inhibition at 10 µM: 11%
PAK5
  remaining activity at 1 µM: 8%
STK33
  remaining activity at 1 µM: 4%
CLK3
  remaining activity at 1 µM: 0%
5-HT transporter (h)
  inhibition at 10 µM: 17%
NLK
  remaining activity at 1 µM: 17%
FGFR4
  remaining activity at 1 µM: 7%
MSK1
  remaining activity at 1 µM: 18%
SKCa channel
  % Inhibition of Control Specific Binding: -6%
TSSK1
  remaining activity at 1 µM: 11%
JNK2ALPHA2
  remaining activity at 1 µM: 9%
PRKX
  remaining activity at 1 µM: 1%
[1]
  Caco-2 efflux (efflux ratio, ER): no efflux
[1]; human, Caco-2, 1 μM, pH 7.4
  Papp at 2 h, 1 μM: 37 ×10⁻⁶ cm/s
FGR
  remaining activity at 1 µM: 16%
RSK1
  remaining activity at 1 µM: 2%
ULK3
  remaining activity at 1 µM: -1%
[2]
  % Inhibition of Control Specific Binding: 9%
BRSK1
  remaining activity at 1 µM: 5%
FGFR3
  remaining activity at 1 µM: 10%
DYRK2
  remaining activity at 1 µM: 9%
ERBB4
  remaining activity at 1 µM: -9%
GABA (non-selective)
  % Inhibition of Control Specific Binding: 10%
FER
  remaining activity at 1 µM: 11%
PKD2
  remaining activity at 1 µM: 0%
DAPK1
  remaining activity at 1 µM: 0%
PIM-2
  remaining activity at 1 µM: 7%
MET
  remaining activity at 1 µM: -14%
EPHB4
  remaining activity at 1 µM: 4%
α2 (non-selective)
  % Inhibition of Control Specific Binding: -1%
FGFR2
  remaining activity at 1 µM: -6%
NK3 (h)
  inhibition at 10 µM: 5%
TLK2
  remaining activity at 1 µM: -12%
A1 (h)
  inhibition at 10 µM: -11%
PIM-1
  remaining activity at 1 µM: 1%
SIK
  remaining activity at 1 µM: -3%
ZAP-70
  remaining activity at 1 µM: 13%
GRK6
  remaining activity at 1 µM: -1%
MLK1
  remaining activity at 1 µM: 1%
SAPK3
  remaining activity at 1 µM: 35%
ULK2
  remaining activity at 1 µM: 10%
